Measurements published in ChEMBL document CHEMBL1147052, “Innate immunity and transcription of MGAT-III and Toll-like receptors in Alzheimer's disease patients are improved by bisdemethoxycurcumin” (Proc Natl Acad Sci U S A, 2007).
The source made the active and inactive calls.

Key:
Assay type in all cases: functional, cell-based
Conditions in all cases: Homo sapiens
Macrophage = assay: Induction of amyloid beta phagocytosis in macrophages from Alzheimer's disease patient at 0.1 uM
PBMC [1] = assay: Upregulation of MGAT3 transcription in PBMC from Alzheimer's disease patient
PBMC [2] = assay: Increase in TLR3 protein expression in PBMC from Alzheimer's disease patient at 0.1 uM by flow cytometry
PBMC [3] = assay: Upregulation of TLR transcription in PBMC from Alzheimer's disease patient
PBMC [4] = assay: Increase in TLR4 protein expression in PBMC from Alzheimer's disease patient at 0.1 uM by flow cytometry
PBMC [5] = assay: Increase in TLR2 protein expression in PBMC from Alzheimer's disease patient at 0.1 uM by flow cytometry

Measured: Activity

O=C(/C=C/c1ccc(O)cc1)CC(=O)/C=C/c1ccc(O)cc1
active: all assays above
